Data as given in patent publication US9125413B1, “Nematicide composition comprising CED-4 peptide” (California State University Fresno, priority 2014, dated 2015).

B1: CED-4: 549 amino acid C. elegans protein (SEQ. ID 1, GenBank CAA48781.1), about 62 KD, produced recombinantly in E. coli; fed as CED-4 producing bacteria (protein)
chain: MLCEIECRALSTAHTRLIHDFEPRDALTYLEGKNIFTEDHSELISKMSTRLERIANFLRIYRRQASELGPLIDFFNYNNQSHLADFLEDYIDFAINEPDLLRPVVIAPQFSRQMLDRKLLLGNVPKQMTCYIREYHVDRVIKKLDEMCDLDSFFLFLHGRAGSGKSVIASQALSKSDQLIGINYDSIVWLKDSGTAPKSTFDLFTDILLMLKSEDDLLNFPSVEHVTSVVLKRMICNALIDRPNTLFVFDDVVQEETIRWAQELRLRCLVTTRDVEISNAASQTCEFIEVTSLEIDECYDFLEAYGMPMPVGEKEEDVLNKTIELSSGNPATLMMFFKSCEPKTFEKMAQLNNKLESRGLVGVECITPYSYKSLAMALQRCVEVLSDEDRSALAFAVVMPPGVDIPVKLWSCVIPVDICSNEEEQLDDEVADRLKRLSKRGALLSGKRMPVLTFKIDHIIHMFLKHVVDAQTIANGISILEQRLLEIGNNNVSVPERHIPSHFQKFRRSSASEMYPKTTEETVIRPEDFPKFMQLHQKFYDSLKNFACC

What was measured:
Assay type in all cases: in vivo, Caenorhabditis elegans
[1] = tested on: C. elegans nematodes at the L1 stage; test: Nematicide efficacy of CED-4 peptides, 96-well incubation of C. elegans L1, viability by probe touch; settings: for Percentage % Alive / Percentage % Dead (mortality rate) / # of nematodes Alive in all combined successful experiments / # of nematodes Dead in all combined successful experiments: three days, about 37° C.
Method: (§1) Assays were performed using 96-well plates. C. elegans nematodes at the L1 stage (refer to FIG. 1) were incubated in each of the 96 wells for three days at about 37° C. at about 0.8 mg/ml peptide concentration for each tested CED-4 peptide. Each of the selected CED-4 peptides were diluted in distilled water to 0.8 mg/ml peptide concentration. Nematodes—numbering between two nematodes and four nematodes—averaging about three nematodes were incubated in 100 μl of CED-4 peptide solution at about 0.8 mg/ml concentration in each well. After a three-day incubation period, the exposed C. elegans nematodes were checked for viability under a dissecting microscope.
The percentage of dead C. elegans from all of the successful experiments is also referred to as the “mortality rate.”
(§2) Each separate well containing nematodes was considered an independent trial experiment. A well in which all of the incubated nematodes were either clearly alive or clearly dead at the end of the incubation period was recorded as one successful experiment. A well in which some or all of the incubated nematodes could not clearly be determined as alive or dead at the end of the incubation period was recorded as one unsuccessful experiment. At a concentration of about 0.8 mg/ml, nine trial experiments were carried out for each of the twelve designed CED-4 peptides.
as §1, with “0.4” for “0.8”
as §2, with “0.4” for “0.8”, “eight” for “nine”

[2] = tested on: C. elegans wild-type (N2 strain) nematodes; test: Fecundity of C. elegans wild-type nematodes fed E. coli producing CED-4
Method: (§3) Constructed expression cassettes generate CED-4 protein in bacteria. […] In this experiment, the ced-4 gene was sub-cloned into the pBAD-DEST49 vector. The pBAD-DEST49-ced-4 construct, and the pBAD-DEST49 empty vector were tested for synthesis of the protein CED-4. The E. coli bacteria strain (TOP 10 chem.) was grown, and once the optical density OD600 reached 0.5, the bacteria was induced by adding L-Arabinose 20% and incubated for four hours at 37° C., 226 rpm in rotary shaker (C24, incubator shaker, Edison, N.J. USA). The production of CED-4 protein was analyzed by SDS 10% acrylamide gel and commassie blue staining.
The genes ced-4 and ced-3 are required for PCD in somatic cells of C. elegans, and a loss-of-function (lf) mutation in any one of them results in increased survival rates of cells that would otherwise be eliminated by PCD. In the experiment summarized by FIG. 5, bacteria carrying the ced-4 gene construct and bacteria carrying an empty vector were grown as described above in Section E, and used to feed C. elegans wild-type nematodes, mutant C. elegans ced-3 nematodes, and mutant C. elegans ced-4 nematodes at L1/L2 stages (refer to FIG. 1). For the experiment described in FIG. 5, C. elegans wild-type (wt), ced-3 (n717) and ced-4 (n1162) strains were synchronized, and the hatched nematodes were raised on a diet consisting of E. coli bacteria producing CED-4. Both nematodes and bacteria were sustained on NGM media and incubated at a temperature between 25° C. and 28° C.
(§4) The effects of CED-4 ingestion on all three different strains of C. elegans used were quantified by population size throughout several generations. After the hatched nematodes fed on either the control bacteria or the CED-4 producing bacteria for 72 hours, the nematodes in each experiment were scored for fecundity over the course of 120 hrs. Fecundity was measured by counting the number of hatched offspring. There were ten experiments replicated for each of the three analyzed C. elegans strains.

[3] = tested on: C. elegans ced-3 (n717) mutant nematodes; test: Fecundity of ced-3 mutant C. elegans fed E. coli producing CED-4
Method: as §3
(§5) The genes ced-4 and ced-3 are required for PCD in somatic cells of C. elegans, and a loss-of-function (lf) mutation in any one of them results in increased survival rates of cells that would otherwise be eliminated by PCD. […]
as §4

[4] = tested on: C. elegans ced-4 (n1162) mutant nematodes; test: Fecundity of ced-4 mutant C. elegans fed E. coli producing CED-4
Method: as §3, §5, §4

[5] = peptide concentration of 0.4 mg/ml
[6] = peptide concentration of 0.8 mg/ml
[7] = versus non-CED-4 producing bacteria

Molecule	Percentage % Alive ([1]; 0.4 mg/ml)	Percentage % Dead (mortality rate) ([1]; 0.4 mg/ml)	Percentage % Alive ([1]; 0.8 mg/ml)	Percentage % Dead (mortality rate) ([1]; 0.8 mg/ml)	# of nematodes Alive in all combined successful experiments ([1]; 0.4 mg/ml)	# of nematodes Dead in all combined successful experiments ([1]; 0.4 mg/ml)	# of nematodes Alive in all combined successful experiments ([1]; 0.8 mg/ml)	# of nematodes Dead in all combined successful experiments ([1]; 0.8 mg/ml)	nematicide efficacy [1, 5]	nematicide efficacy [1, 6]	further results
H-ALLSGKRMPVLTFKI-OH [Peptide 10]	30%	70%	66.7%	33.3%	–	–	–	–	–	–	–
H-DLLRPVVIAPQFSRQ-OH [Peptide 2]	92.3%	7.7%	0%	100%	–	–	–	–	–	–	–
H-DVEISNAASQTCEFIEVTSLE-OH [Peptide 7]	100%	0%	100%	0%	19	0	18	0	not associated with a high number of dead nematodes	not associated with a high number of dead nematodes	–
H-FPKFMQLHQKFY-OH [Peptide 12]	33.3%	–	0%	–	–	–	0	–	–	–	–
H-LVGVECITPYSYKSLAMALQR-OH [Peptide 9]	100%	0%	100%	0%	18	0	8	0	not associated with a high number of dead nematodes	not associated with a high number of dead nematodes	–
H-MMFFKSCEPKTFEKMAQLNNKLESR-OH [Peptide 8]	90.90%	9.09%	100%	0%	10	–	2	0	–	not associated with a high number of dead nematodes	–
H-QSHLADFLEDYIDFAINE-OH [Peptide 1]	100%	0%	–	–	14	0	–	–	not associated with a high number of dead nematodes	not associated with a high number of dead nematodes	–
H-RQMLDRKLLLGNVPKQMTC-OH [Peptide 3]	40%	60%	0%	100%	–	–	–	20	–	–	–
H-TCYIREYHVDRVI-OH [Peptide 4]	64.28%	–	50%	–	–	–	–	–	–	–	–
H-TSVVLKRMICNALI-OH [Peptide 6]	100%	0%	100%	0%	9	0	9	0	not associated with a high number of dead nematodes	not associated with a high number of dead nematodes	–
H-VDAQTIANGISILEQRL-OH [Peptide 11]	100%	0%	70%	30%	22	0	–	–	not associated with a high number of dead nematodes	–	–
NH3—ILLMLKSEDDLLNF-COOH (H-ILLMLKSEDDLLNF-OH) [Peptide 5, ID No. 1]	–	–	–	–	–	–	–	–	not associated with a high number of dead nematodes	not associated with a high number of dead nematodes	–
bovine serum albumin [BSA, reference compound]	100%	–	100%	–	21	0	26	0	–	–	–
B1	–	–	–	–	–	–	–	–	–	–	number of hatched offspring (mean) ([2]; 2 wild-type embryos per experiment, fed bacteria expressing CED-4 72 hours, fecundity scored over 120 hrs, ten experiments): about 115 hatched offspring; increase in rate of cell death ([2]; wild-type fed bacteria expressing CED-4 for 6 days): approximately 2 fold; offspring produced relative to those fed bacteria containing empty expression vectors ([2]; wild-type, CED-4 fed, t-test p≦0.01): less than 50%; reduction in fecundity ([2]; wild-type, ingesting bacteria expressing CED-4): 50%; number of hatched offspring (mean) ([3]; 2 ced-3 mutant embryos per experiment, ingesting CED-4 producing bacteria, ten experiments): about 220 hatched offspring; decrease in ced-3 mutant fecundity due to exogenous CED-4 [3, 7]: statistically insignificant; number of hatched offspring (mean) ([4]; 2 ced-4 mutant embryos per experiment, exposed to CED-4 producing bacteria, ten experiments): about 236 hatched offspring; decrease in ced-4 mutant fecundity due to exogenous CED-4 [4, 7]: statistically insignificant
